Test results: article PMC3402595 (Breast Cancer Research and Treatment, 2012)
Where a SMILES comes first, the peptide text is derived from it. [ ]: non-standard residue; d: D form. pS = N[C@@H](COP(=O)(O)O)C(=O)O

Experiments:
BRCT(BRCA1) [1] = molecular target: T1, BRCT(BRCA1) (Homo sapiens, UniProt P38398); conditions: systematic structure activity relationship study; ref [3]; cited from earlier work
BRCT(BRCA1) [2] = molecular target: T1, BRCT(BRCA1); assay: Competitive fluorescence polarization, inhibition of BRCT; format: binding
[3] = Precipitation of Olaparib; format: physicochemical

T1 sequence (P38398 1646-1859 limits assumed): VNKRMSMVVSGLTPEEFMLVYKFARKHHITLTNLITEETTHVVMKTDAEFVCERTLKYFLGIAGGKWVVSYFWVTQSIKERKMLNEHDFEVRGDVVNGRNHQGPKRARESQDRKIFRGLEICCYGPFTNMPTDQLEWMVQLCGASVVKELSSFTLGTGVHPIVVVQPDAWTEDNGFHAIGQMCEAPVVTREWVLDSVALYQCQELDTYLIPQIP

Structure (SMILES)	binding affinity for BRCT(BRCA1) (BRCT(BRCA1) [1])	Ki (BRCT(BRCA1) [2])	concentration at which precipitation of Olaparib was observed [3]
CC(=O)N[C@@H](COP(=O)(O)O)C(=O)N1CCC[C@H]1C(=O)N[C@H](C(=O)N[C@@H](Cc1ccccc1)C(=O)O)[C@@H](C)O [Inhibitor 1, Ac-pSPTF-CO2H] (Ac-[pS]PTF-OH)	nanomolar binding affinities	0.23 ± 0.06 µM	
O=C(c1cc(Cc2n[nH]c(=O)c3ccccc23)ccc1F)N1CCN(C(=O)C2CC2)CC1 [Olaparib]			higher than 25 μM
